The text below walks through data of US11053216B2, “Compounds and methods of use” (Medivation Technologies LLC, priority 2014, dated 2021).

The nature of data set [1]: Pharmacokinetics and bioavailability in male mice after a single dose. It counts as in vivo.
Data set [2] in a line: Plasma and brain concentrations at 0.5 and 1 h. It counts as in vivo, mice.
Data set [3] concerns the target ALK3 (BMPR1A) (Homo sapiens (Human), UniProt P36894). The data set can be described thus: In vitro kinase assay (33P ATP, 10 μM ATP). It is filed as biochemical. Conditions: read-out: Inhibition of ALK3 (IC50 μM).

ALK3 (BMPR1A), sequence (P36894 24-532): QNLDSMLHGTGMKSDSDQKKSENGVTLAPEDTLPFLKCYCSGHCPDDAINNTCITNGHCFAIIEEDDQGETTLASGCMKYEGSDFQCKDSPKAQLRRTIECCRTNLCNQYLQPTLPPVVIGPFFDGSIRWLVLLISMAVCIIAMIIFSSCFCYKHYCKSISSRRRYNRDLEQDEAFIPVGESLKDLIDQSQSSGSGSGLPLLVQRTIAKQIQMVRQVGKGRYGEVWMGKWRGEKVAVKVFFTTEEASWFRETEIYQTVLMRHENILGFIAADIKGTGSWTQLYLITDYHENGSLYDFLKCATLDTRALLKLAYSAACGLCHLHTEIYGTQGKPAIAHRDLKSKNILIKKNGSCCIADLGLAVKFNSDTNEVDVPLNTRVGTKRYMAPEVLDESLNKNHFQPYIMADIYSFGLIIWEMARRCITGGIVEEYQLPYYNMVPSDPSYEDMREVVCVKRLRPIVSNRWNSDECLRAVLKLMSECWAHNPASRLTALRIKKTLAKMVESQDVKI

Regarding `CCc1cnc(-c2cc(Cl)ccc2F)cc1Nc1ccncc1C(=O)NC[C@H](C)O` (single isomer, unassigned) [11a], the concentration in data set [1] (oral, 10 mg/kg) peaked (Cmax) at 3.48 µM.
The compound `CC(C)c1cnc(-c2cc(Cl)ccc2F)cc1Nc1ncncc1C(=O)NC[C@H](C)O` (single isomer, unassigned) [12a] came in with a Cmax in data set [1] (mouse, plasma, intravenous, 2 mg/kg) of 7.15 µM.
In the case of `CC(C)c1cnc(-c2cc(Cl)ccc2F)cc1Nc1ccncc1C(=O)NC[C@H](C)O` [2a, (S)-4-[[2-(5-chloro-2-fluoro-phenyl)-5-isopropyl-4-pyridyl]amino]-N-(2-hydroxypropyl)pyridine-3-carboxamide], the Brain concentration was determined as 73.2 ng/mL in data set [2] (IV 2 mg/kg, 0.5 h); 82.4 ng/mL in data set [2] (IV 2 mg/kg, 1 h); 202 ng/mL in data set [2] (PO 10 mg/kg, 0.5 h); 114 ng/mL in data set [2] (PO 10 mg/kg, 1 h). Besides, the Plasma concentration was determined as 310 ng/mL in data set [2] (IV 2 mg/kg, 0.5 h); 366 ng/mL in data set [2] (IV 2 mg/kg, 1 h); 1570 ng/mL in data set [2] (PO 10 mg/kg, 0.5 h); 905 ng/mL in data set [2] (PO 10 mg/kg, 1 h).
Turning to `C=C(C)c1cnc(-c2cc(Cl)ccc2F)cc1Nc1ccncc1C(=O)NC[C@H](C)O` [3a, (S)-4-(2-(5-chloro-2-fluorophenyl)-5-(prop-1-en-2-yl)pyridin-4-ylamino)-N-(2-hydroxypropyl)pyridine-5-carboxamide], the Brain concentration in data set [2] (IV 2 mg/kg, 0.5 h) came out at 173 ng/mL; in data set [2] (IV 2 mg/kg, 1 h), 168 ng/mL; in data set [2] (PO 10 mg/kg, 0.5 h), 305 ng/mL; in data set [2] (PO 10 mg/kg, 1 h), 406 ng/mL. In addition, the Plasma concentration in data set [2] (IV 2 mg/kg, 0.5 h) came to 432 ng/mL; in data set [2] (IV 2 mg/kg, 1 h) it was 365 ng/mL; in data set [2] (PO 10 mg/kg, 0.5 h) it was 1280 ng/mL; in data set [2] (PO 10 mg/kg, 1 h) it was 1250 ng/mL.
Compound `C[C@H](O)CNC(=O)c1cnccc1Nc1cc(-c2cc(Cl)ccc2F)ncc1N(C)C` [16a, (S)-4-(2-(5-chloro-2-fluorophenyl)-5-(dimethylamino)pyridin-4-ylamino)-N-(2-hydroxypropyl)nicotinamide] had a Cmax in data set [1] (oral, 10 mg/kg) of 3.42 µM.
For `Fc1ccc(Cl)cc1-c1cc(Nc2ccnc3[nH]ccc23)c(C2CC2)cn1` [compound 32, 2-(5-chloro-2-fluorophenyl)-5-cyclopropyl-N-{1H-pyrrolo[2,3-b]pyridin-4-yl}pyridin-4-amine], the IC50 in data set [3] worked out at 333 µM.

As usually defined, the Cmax is the highest concentration seen after dosing. Usually IC50 stands for the midpoint of a concentration-inhibition curve.
